Columns and labels:
Type in all cases: physicochemical
[1] = Thermal degradation (weight loss) by TGA at 180 °C in nitrogen purge; conditions: TGA 180 °C, 60 minutes, 0.3% antioxidant added to CPE slurry heated to 80 °C for 90 minutes
Protocol: The thermal degradation (weight loss) of the following samples is measured by TGA at 180 °C (in a nitrogen purge during 60 minutes).

[2] = Extension at break after roll milling, dry blending versus liquid-liquid addition of antioxidant; conditions: with calcium stearate, epoxidized soja bean oil, titanium dioxide
Protocol: In order to illustrate the advantages of liquid-liquid blending over dry blending, a sample of CPE containing 36% chlorine, having a density of 1.18 g/cm³, a weight average molecular weight of 2x10⁵ and a cristallinity of 0.5% is mixed in a food processor with 1% calcium stearate, 1% epoxidized soja bean oil and 0.5% titanium dioxide, based on the weight of the CPE. The mixture is formed into a sheet of 3 mm thickness on a roll mill at 190 °C, and its tensile properties are measured. The extension at break is a measure of the molecular weight of a polymer. The material breaks at 596% extension.
Another sample of the same material is milled for 15 minutes at 190 °C before a sheet of 3 mm thickness is formed.
The antioxidant IRGANOX 1076 (trademark) is added to the mixture as described above at an amount of 0.25% by the weight of the CPE using the food mixer. The resulting mixture is milled for 15 minutes. The extension at break of a sheet of 3 mm thickness, prepared as indicated above, is 740%, showing that the degree of chain scission is reduced by the addition of the antioxidant. (comparative run, but not State of the Art.)
To an aqueous slurry containing 16 % of the CPE, based on the total weight of the slurry, 0.25% IRGANOX 1076 (trademark), by the weight of CPE is added in the manner described in Example 1. The mixture is dried as described in Example 1. […]

[3] = Total organic carbon (TOC) of the slurry, test of antioxidant deposition on CPE; conditions: 60 minutes after addition of 0.5% antioxidant to the CPE slurry; 11.8 ppm before addition
Protocol: In order to test that the antioxidant has actually deposited on the CPE, rather than on the reactor walls, the total organic carbon (TOC) of the slurry is measured, and a glass slide placed in the reactor during the test is investigated for deposition of antioxidant.

extension at break ([2]; 0.25% antioxidant added to aqueous slurry with 16% CPE (method of the invention), 15 minutes milling)	extension at break ([2]; 0.25% antioxidant dry-blended in food mixer (comparative run), milled 15 minutes at 190 °C, sheet of 3 mm)	total organic carbon (TOC) of the slurry [3]	Structure (SMILES)	thermal degradation (weight loss) [1]
–	–	–	Cc1cc(CCC(=O)OCCOCCOCCOC(=O)CCc2cc(C)c(O)c(C(C)(C)C)c2)cc(C(C)(C)C)c1O [IRGANOX 245, triethylene glycol bis [3-tert-butyl-4-hydroxy-5-methylphenyl]propionate]	75 ppm/min.
704%	740%	10.0 ppm	CCCCCCCCCCCCCCCCCCOC(=O)CCc1cc(C(C)(C)C)c(O)c(C(C)(C)C)c1 [IRGANOX 1076, Octadecyl 3,5-di-tert-butyl-4-hydroxyhydrocinnamate]	–

Reference: patent EP0561516A1, “Process for stabilizing chlorinated polyethylene against degradation” (THE DOW CHEMICAL COMPANY, priority 1992, dated 1993)
